Ends that are not written are not given here.
B1: rLG3: recombinant His6-tagged human laminin α2 chain LG3 domain, amino acids 2537 to 2745 (protein, listed as Homo sapiens)
chain: VELSPVPIDVGTEINLSFSTKNESGIILLGSGGTPAPPRRKRRQTGQAYYVILLNRGRLEVHLSTGARTMRKIVIRPEPNLFHDGREHSVHVERTRGIFTVQVDENRRYMQNLTVEQPIEVKKLFVGGAPPEFQPSPLRNIPPFEGCIWNLVINSVPMDFARPVSFKNADIGRCAHQKLREDEDGAAPAEIVIQPEPVPTPAFPTPTPV
modifications: His6 tag

Experiments:
Type in all cases: cell-based, rat
PC12 cells [1] = assay: Cell migration assay (transwell migration chambers); conditions: transwell filters coated with laminin 5 μg/mL, rLG proteins 25 μg/mL or peptides 62.5 μg/mL, 24 h
Method: Cell migration assays were performed using transwell migration chambers of 8 μm in pore size (Corning Inc., NY) as described in a paper published previously by the present inventors (Kim, J. M., Min, S. K., Kim, H., Kang, H. K., Jung, S. Y., Lee, S. H., Choi, Y., Roh, S., Jeong, D., and Min, B. M. (2007) Int. J. Mol. Med.).
The lower sides of transwell filters were coated with laminin (5 μg/mL) or rLG proteins (25 μg/mL) for 12 h at 4° C. The lower sides of transwell filters were blocked with 1% BSA in PBS for 1 h at 37° C. Cells were suspended at a density of 4×10^5 cells/mL in RPMI 1640 medium containing 0.5% FBS and 0.1% BSA. 100 μL of this suspension was seeded in the upper chamber of the transwell filter. Cells were allowed to migrate for 24 h at 37° C. and then fixed with 10% formalin for 15 min and stained with 0.5% crystal violet. Non-migrated cells in the upper chamber of transwell filters were removed with a cotton swab, viewed under a light microscope, and counted.
(§1) Specifically, to observe cell adhesion, spreading, migration, and neurite outgrowth promotion, the methods described in Experimental examples <2-1> to <2-3> were used and PC12 cells were cultured on plates coated with laminin (5 μg/mL), rLG3 (25 μg/mL), and rLG3-M1 (25 μg/mL) and observed. To observe cell adhesion, PC12 cells were incubated on the coated plates for 1 h and to observe cell spreading, PC12 cells were incubated on the coated plates for 3 h. To observe cell migration, PC12 cells were incubated on the coated plates for […].

PC12 cells [2] = assay: Cell spreading assay on coated plates (cell surface area); conditions: 3 h, laminin 5 μg/mL, rLG proteins 25 μg/mL, peptides 62.5 μg/mL
Method: To determine cell spreading assays, the cells cultured on plates coated with each rLG domain protein for 1 h or 3 h in Experimental example <2-1> were fixed with 10% formalin. Then, the fixed cells were stained with 0.05% crystal violet for 1 h and plates were gently washed with PBS three times. The surface area of cells was measured with Image-Pro plus software (Version 4.5; Media Cybernetics, Silver Spring, Md.).
(§2) The present inventors compared the cellular activities of Ln2-LG3-P2 peptide to scrambled peptide (SEQ ID NO:20, NWEIRCIPGNPF) of Ln2-LG3-P2 peptide and Ln2-LG3-P1 peptide to Ln2-LG3-P5 peptide at a concentration of 62.5 μg/mL where the cell adhesion activity was the maximum. […] PC12 cells were cultured on plates which were coated in the same way for 3 h in serum-free medium and the cell spreading was observed.
as §1
(§3) To measure cell adhesion, spreading, migration, and neurite outgrowth promotive activities of PC12 cells using the prepared synthetic peptides that are N- and C-terminal truncated or C-terminal added peptides of the Ln2-LG3-P2 peptide, peptides described in Table 1 were coated onto plates at 62.5 μg/mL and PC12 cells were seeded thereon.

PC12 cells [3] = assay: Immunostaining of actin stress fibers and focal adhesions; conditions: PC12 cells on coated chamber slides, 3 h, serum-free
Method: Specifically, for immunostaining, PC12 cells were incubated on Lab-Tek chamber slides (Nalge Nunc International, Rochester, N.Y.) coated with laminin (5 μg/mL), rLG domain proteins (25 μg/mL), or Scrambled peptide (SP) (25 μg/well) in serum-free medium for 3 h at 37° C. Lab-Tek chamber slides were coated with BSA for the control. After rinsing with PBS, PC12 cells were fixed with 3.7% formalin for 20 min and permeabilized with 0.5% Triton X-100 for 5 min. PC12 cells were incubated with primary antibodies for 12 h at 4° C. The primary antibodies used were 1:500 anti-vinculin (Sigma-Aldrich 9131), or 1:300 rhodamin-phalloidin (Invitrogen R154) antibodies. After rinsing with PBS, PC12 cells were immunostained with FITC-conjugated anti-mouse IgG antibody (Jackson ImmunoResearch Laboratories, West Grove, Pa.) or rhodamin-conjugated anti-mouse IgG antibody (Santa Cruz Biotechnology) for 1 h at room temperature. After being washed three times with PBS, the stained PC12 cells were mounted and photographed using a confocal laser scanning microscope (FV300; Olympus, Japan).

PC12 cells [4] = assay: Cell adhesion assay on coated plates (crystal violet, absorbance 570 nm); conditions: 1 h, serum-free; for cell adhesion: PC12 cells on coated plates, laminin 5 μg/mL, rLG proteins 25 μg/mL, peptides 62.5 μg/mL (0 to 125 μg/mL in FIG. 2B)
Method: The cell adhesion assay was performed as described in a paper published previously by the present inventors (Kim, J. M., et al, Exp. Cell Res, 2005).
Specifically, 24-well culture plates (Nunc, Denmark) were coated with 5 μg/mL human placental laminin (Sigma-Aldrich, St. Louis, Mo.) or 25 μg/mL rLG domain proteins for 12 h at 4° C. The peptides were also coated on the plates by drying for 12 h at room temperature. The substrate-coated plates were blocked with 1% heat-inactivated bovine serum albumin (BSA) in PBS for 1 h at 37° C. and then washed with PBS.
The cells were trypsinized with trypsin/EDTA and resuspended in serum-free culture medium. The cells were added at a density of 2×10^5 cells/500 μL to each plate and incubated in serum-free culture medium for 1 h at 37° C. After incubation, unattached cells were removed by rinsing twice with PBS. The attached cells were fixed with 10% formalin for 15 min and then stained with 0.5% crystal violet for 1 h. Plates were gently washed with distilled water three times and dissolved with 2% SDS for 5 min. Absorbance was measured at 570 nm using a microplate reader (BioRad).
First, PC12 cells were cultured on plates coated with varying amounts of five kinds of Ln2-PG3 peptides and then cell adhesion was observed. The peptides were coated in concentrations ranging from 0 to 125 μg/mL on plates by drying them for 12 h at room temperature.
as §2, §1, §3

| Molecule | cell migration (PC12 cells [1]) | cell spreading (PC12 cells [2]) | actin stress fiber formation and focal adhesions (PC12 cells [3]) | cell spreading (immunostaining) (PC12 cells [3]) | cell adhesion (PC12 cells [4]) | coating concentration at which cell adhesion activity reached the maximum level (PC12 cells [4]; PC12 cells) [µg/mL] |
| --- | --- | --- | --- | --- | --- | --- |
| RNIPPFEGCIWN (RNIPPFEGCIWN-NH2; listed as Homo sapiens) [Ln2-LG3-P2, 12-mer peptide, position 2675 to 2686 in human laminin α2 chain] | comparable to that of rLG3 | comparable to that of rLG3 | formed stress fiber formation, and focal adhesions but to a lesser degree than those on laminin | spread well | promoted the cell adhesion | 62.5 |
| laminin [reference compound] | promoted cell migration | promoted cell spreading | formed actin stress fibers and focal adhesions | spread very well | promoted cell adhesion |  |
| B1 | induced cell migration significantly | induced cell spreading | formed stress fiber formation, and focal adhesions but to a lesser degree than those on laminin | spread well | adhered to rLG1, rLG3, and rLG4 in a dose-dependent manner |  |

From patent US9314510B2, “Human laminin α2 chain LG3 domain and active peptides promoting cell adhesion, spreading, migration, and neurite outgrowth” (SNU R&DB Foundation, priority 2011, dated 2016)
